Source: PubChem BioAssay AID1963852 (Molecular Pharmacology Branch, DTP, NCI, 2024)

Tested on: 282377-053-R-J1-PDC complex spheroid viability
Experiment: Anticancer human tumor 282377-053-R-J1-PDC patient-derived colon adenocarcinoma cell line growth inhibition [POLQ]
Conditions: for IC50: curve of first compound; for viability, T/C: stronger effect = lower value; active means viability on the fitted dose curve at most 10% of control; inactive means the rest
Procedure, shortened: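 Three-cell-type spheroids modelling solid tumor plus stroma served as the readout system; POL inhibitors were tested individually and in combination, concentration ranges set by clinical Cmax where known.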

[1] = second compound 0.0316 µM, first compound 0.0316 µM
[2] = second compound 0.0316 µM, first compound 0.1 µM
[3] = second compound 0.0316 µM, first compound 0.316 µM
[4] = second compound 0.0316 µM, first compound 1 µM
[5] = second compound 0.1 µM, first compound 0.0316 µM
[6] = second compound 0.1 µM, first compound 0.1 µM
[7] = second compound 0.1 µM, first compound 0.316 µM
[8] = second compound 0.1 µM, first compound 1 µM
[9] = second compound 0.316 µM, first compound 0.0316 µM
[10] = second compound 0.316 µM, first compound 0.1 µM
[11] = second compound 0.316 µM, first compound 0.316 µM
[12] = second compound 0.316 µM, first compound 1 µM
[13] = second compound 1 µM, first compound 0.0316 µM
[14] = second compound 1 µM, first compound 0.1 µM
[15] = second compound 1 µM, first compound 0.316 µM
[16] = second compound 1 µM, first compound 1 µM
[17] = second compound 3.16 µM, first compound 0.0316 µM
[18] = second compound 3.16 µM, first compound 0.1 µM
[19] = second compound 3.16 µM, first compound 0.316 µM
[20] = second compound 3.16 µM, first compound 1 µM
[21] = second compound 10 µM, first compound 0.0316 µM
[22] = second compound 10 µM, first compound 0.1 µM
[23] = second compound 10 µM, first compound 0.316 µM
[24] = second compound 10 µM, first compound 1 µM
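Further: spheroids exposed to compounds for seven days.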
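Wherever viability, T/C is given: 100% = DMSO vehicle control viability.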

COc1cccc(OCCCN)c1-c1cc(Nc2cnc(C#N)cn2)n[nH]1 + Nc1ccc(C#CCN(C(=O)Cc2ncc(C(F)(F)F)cc2C(F)(F)F)c2ccc(F)cc2)nn1
0.212 µM: IC50 (second compound 10 µM)
0.298 µM: IC50 (second compound 0.316 µM)
inactive: viability, T/C (second compound 0.0316 µM, first compound 0.00316 µM) 128% | viability, T/C (second compound 0.0316 µM, first compound 0.01 µM) 93.5% | viability, T/C [1] 85% | viability, T/C [2] 66.8% | viability, T/C [3] 55.3% | viability, T/C [4] 37% | viability, T/C (second compound 0.1 µM, first compound 0.00316 µM) 89.7% | viability, T/C (second compound 0.1 µM, first compound 0.01 µM) 97.3% | viability, T/C [5] 72.9% | viability, T/C [6] 62.4% | viability, T/C [7] 51.8% | viability, T/C [8] 39% | viability, T/C (second compound 0.316 µM, first compound 0.00316 µM) 94.9% | viability, T/C (second compound 0.316 µM, first compound 0.01 µM) 88.3% | viability, T/C [9] 73.4% | viability, T/C [10] 58.1% | viability, T/C [11] 53.2% | viability, T/C [12] 38% | viability, T/C (second compound 1 µM, first compound 0.00316 µM) 110% | viability, T/C (second compound 1 µM, first compound 0.01 µM) 90.3% | viability, T/C [13] 76.4% | viability, T/C [14] 58.4% | viability, T/C [15] 53.7% | viability, T/C [16] 47.5% | viability, T/C (second compound 3.16 µM, first compound 0.00316 µM) 97.6% | viability, T/C (second compound 3.16 µM, first compound 0.01 µM) 93.5% | viability, T/C [17] 81.3% | viability, T/C [18] 74.9% | viability, T/C [19] 39.7% | viability, T/C [20] 35.6% | viability, T/C (second compound 10 µM, first compound 0.00316 µM) 103% | viability, T/C (second compound 10 µM, first compound 0.01 µM) 96.7% | viability, T/C [21] 99.9% | viability, T/C [22] 66.7% | viability, T/C [23] 43.3% | viability, T/C [24] 36.3%
0.577 µM: IC50 (second compound 1 µM)
0.285 µM: IC50 (second compound 0.1 µM)
0.242 µM: IC50 (second compound 3.16 µM)
0.37 µM: IC50 (second compound 0.0316 µM)

C#Cc1c(F)ccc2cc(O)cc(-c3ncc4c(N5CC6CCC(C5)N6)nc(OCC56CCCN5CC(F)C6)nc4c3F)c12 (centres undefined) + COC1C(OC(N)=O)C(O)C(Oc2ccc3c(O)c(NC(=O)c4ccc(O)c(CC=C(C)C)c4)c(=O)oc3c2C)OC1(C)C
> 10 µM: IC50 (second compound 0.0316 µM) | IC50 (second compound 0.1 µM) | IC50 (second compound 0.316 µM) | IC50 (second compound 1 µM) | IC50 (second compound 3.16 µM) | IC50 (second compound 10 µM)
inactive: viability, T/C [1] 111% | viability, T/C [2] 115% | viability, T/C [3] 108% | viability, T/C [4] 117% | viability, T/C (second compound 0.0316 µM, first compound 3.16 µM) 88.8% | viability, T/C (second compound 0.0316 µM, first compound 10 µM) 96.9% | viability, T/C [5] 94.4% | viability, T/C [6] 113% | viability, T/C [7] 107% | viability, T/C [8] 90% | viability, T/C (second compound 0.1 µM, first compound 3.16 µM) 96.9% | viability, T/C (second compound 0.1 µM, first compound 10 µM) 88.1% | viability, T/C [9] 94% | viability, T/C [10] 120% | viability, T/C [11] 93.7% | viability, T/C [12] 91.5% | viability, T/C (second compound 0.316 µM, first compound 3.16 µM) 92.6% | viability, T/C (second compound 0.316 µM, first compound 10 µM) 85.6% | viability, T/C [13] 104% | viability, T/C [14] 96.5% | viability, T/C [15] 98.9% | viability, T/C [16] 82.5% | viability, T/C (second compound 1 µM, first compound 3.16 µM) 112% | viability, T/C (second compound 1 µM, first compound 10 µM) 87.8% | viability, T/C [17] 104% | viability, T/C [18] 88.3% | viability, T/C [19] 95.4% | viability, T/C [20] 82.3% | viability, T/C (second compound 3.16 µM, first compound 3.16 µM) 92.1% | viability, T/C (second compound 3.16 µM, first compound 10 µM) 87.7% | viability, T/C [21] 100% | viability, T/C [22] 91.2% | viability, T/C [23] 102% | viability, T/C [24] 93.7% | viability, T/C (second compound 10 µM, first compound 3.16 µM) 74.8% | viability, T/C (second compound 10 µM, first compound 10 µM) 86.8%
